Assay results as given in the NIST ThermoML archive (doi:10.1021/je101361u).

Assay: xn = mol fraction of the nth substance listed
Details: 101.3 kPa, Liquid

COCCOC [1,2-dimethoxyethane] + ClCCCl
mass density [kg/m3]
Details	323.15 K	328.15 K	333.15 K
x2 = 0.0251	–	835.13	829.32
x2 = 0.05	–	842.55	836.72
x2 = 0.0501	–	842.6	836.76
x2 = 0.075	–	850.11	844.24
x2 = 0.1	–	857.7	851.8
x2 = 0.1552	–	874.92	868.95
x2 = 0.2001	895.15	889.17	883.15
x2 = 0.2501	911.42	905.37	899.27
x2 = 0.3002	928.08	921.97	915.79
x2 = 0.35	945	938.81	932.56
x2 = 0.4001	962.41	956.14	949.82
x2 = 0.45	980.16	973.82	967.42
x2 = 0.5	998.35	991.93	985.45
x2 = 0.5001	998.45	992.02	985.53
x2 = 0.55	1017.03	1010.51	1003.94
x2 = 0.6001	1036.13	1029.53	1022.87
x2 = 0.65	1055.68	1048.98	1042.24
x2 = 0.7	1075.76	1068.97	1062.12
x2 = 0.75	1096.45	1089.55	1082.61
x2 = 0.8	1117.56	1110.55	1103.5
x2 = 0.85	1139.51	1132.39	1125.22
x2 = 0.9	1161.97	1154.73	1147.44
x2 = 0.925	1173.35	1166.05	1158.7
x2 = 0.975	1196.86	1189.43	1181.97
